In article PMC4835159 (Journal of Medicinal Chemistry, 2016):

What was measured:
CYP121 [1] = target: T1, CYP121 (Mycobacterium tuberculosis, UniProt P9WPP7); assay type: binding
CYP121 [2] = target: T1, CYP121; assay: Single shot UV–vis absorbance assay (Soret band shift, competition with type II inhibitor) on CYP121; assay type: binding; conditions: analogues 100 μM or 1 mM, P450 2.5–5 μM
CYP143 = target: T2, CYP143 (Mycobacterium tuberculosis, UniProt P9WPL3); assay: Single shot UV–vis binding mode assay on CYP143; conditions: analogues 100 μM or 1 mM, P450 2.5–5 μM
T2 construct: made in house
T2 sequence (P9WPL3 whole entry): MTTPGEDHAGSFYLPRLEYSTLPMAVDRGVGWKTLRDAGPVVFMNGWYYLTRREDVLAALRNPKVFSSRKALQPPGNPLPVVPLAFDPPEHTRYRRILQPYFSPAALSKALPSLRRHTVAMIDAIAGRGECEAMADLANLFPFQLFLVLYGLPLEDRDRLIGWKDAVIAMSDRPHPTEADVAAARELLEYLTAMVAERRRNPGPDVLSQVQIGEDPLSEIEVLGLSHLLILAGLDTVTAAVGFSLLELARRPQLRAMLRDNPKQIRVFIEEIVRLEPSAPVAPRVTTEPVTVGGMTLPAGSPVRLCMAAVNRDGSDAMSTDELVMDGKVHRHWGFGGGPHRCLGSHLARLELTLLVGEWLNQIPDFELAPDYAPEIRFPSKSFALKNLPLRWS
Protocol: UV–vis screening was performed using a CARY400 UV–vis spectrophotometer (Varian, CA, USA). Ligands were prepared as DMSO-d6 stock solutions (1–100 mM) and added to protein (5 μM) solutions (198 μL) or to buffer alone to give a final DMSO-d6 concentration of 1% v/v. CYP121 was prepared in 50 mM Tris-HCl (pH 7.2), 1 mM EDTA buffer. CYP125, CYP126, CYP142, CYP143, and CYP144 were prepared in 50 mM Tris-HCl (pH 7.5), 100 mM KCl buffer. CYP124 was prepared in 100 mM potassium phosphate (pH 7.0), 100 mM KCl buffer. Spectra were recorded between 800 and 250 nm at 25 °C. Any spectral interference from the inherent absorbance of added ligands/solvent was removed by subtracting spectra collected for protein-free samples of the same ligands/solvent in buffer. The difference in Soret wavelength maximum (Δλmax) of the respective P450s Soret band (λmax) in the presence of ligands compared to that obtained for a 1% v/v DMSO-d6 control was used to identify type I or type II heme-binding interactions. […]
The difference in the red-shift of the Soret band between competition assays and that found for the known type II ligand in the absence of competing ligands was used to determine competitive binding. Buffer control spectra were collected to account for any inherent absorbance of added ligands/solvent and all solutions were inspected and found to be free of precipitate. […]

Mtb H37Rv = assay: Antimycobacterial activity assay (MIC90); assay type: cell-based, Mycobacterium tuberculosis; parameters: key to MIC90: “N” indicates that compounds did not produce any significant cell death within the tested concentration range; conditions: triplicate, 0–100 μM, 2 weeks
CYP121 [3] = target: T1, CYP121; assay: Native mass spectrometry of CYP121 with ligands; assay type: binding
CYP144TR = target: T3, CYP144TR (Mycobacterium tuberculosis, UniProt P9WPL1)
T3 sequence (P9WPL1 31-434 limits assumed): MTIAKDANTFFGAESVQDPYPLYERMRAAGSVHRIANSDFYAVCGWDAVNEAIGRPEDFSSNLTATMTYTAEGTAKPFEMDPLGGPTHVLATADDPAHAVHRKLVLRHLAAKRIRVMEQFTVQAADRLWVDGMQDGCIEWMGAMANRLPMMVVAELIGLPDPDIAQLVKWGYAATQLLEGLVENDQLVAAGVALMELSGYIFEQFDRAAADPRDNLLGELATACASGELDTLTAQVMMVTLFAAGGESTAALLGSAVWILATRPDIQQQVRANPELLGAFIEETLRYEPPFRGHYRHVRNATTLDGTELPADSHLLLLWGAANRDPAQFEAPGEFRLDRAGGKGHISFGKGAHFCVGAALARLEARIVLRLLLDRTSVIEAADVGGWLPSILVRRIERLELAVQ

CYP1A = assay: Human P450 inhibition in human liver microsomes, CYP1A (ethoxyresorufin); conditions: IC50 for CYP1A versus CYP121 KD

T1 sequence (P9WPP7 whole entry): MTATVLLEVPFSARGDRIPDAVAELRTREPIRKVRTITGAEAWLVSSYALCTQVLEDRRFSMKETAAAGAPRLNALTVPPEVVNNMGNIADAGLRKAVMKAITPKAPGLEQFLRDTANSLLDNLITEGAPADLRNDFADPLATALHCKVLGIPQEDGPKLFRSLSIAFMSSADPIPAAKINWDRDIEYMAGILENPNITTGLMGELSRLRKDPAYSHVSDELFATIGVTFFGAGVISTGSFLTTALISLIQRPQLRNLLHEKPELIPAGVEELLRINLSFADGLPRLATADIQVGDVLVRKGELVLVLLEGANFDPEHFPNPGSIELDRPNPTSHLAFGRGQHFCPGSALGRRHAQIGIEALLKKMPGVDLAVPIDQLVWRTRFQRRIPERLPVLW

## Oc1ccc(CNc2[nH]nc(-c3ccc(O)cc3)c2-c2ccc(O)cc2)cc1 [26a, 4,4′-(5-((4-Hydroxybenzyl)amino)-1H-pyrazole-3,4-diyl)diphenol]
CYP121 [1]
  LE (ligand efficiency): 0.25
CYP121 [2]
  Binding Mode, CYP121: N
CYP143
  Binding Mode, CYP143: N
Mtb H37Rv
  MIC90: N
CYP121 [3]; Protein-Ligand Ratio 1:0.5
  Monomer (%) of CYP121: 14%
  ligand binding stoichiometry, CYP121 Dimer: 1
  ligand binding stoichiometry, CYP121 Monomer: 0
CYP121 [3]; Protein-Ligand Ratio 1:1
  Monomer (%) of CYP121: 29%
  ligand binding stoichiometry, CYP121 Dimer: 1
  ligand binding stoichiometry, CYP121 Monomer: 0
CYP121 [3]; Protein-Ligand Ratio 1:25
  Monomer (%) of CYP121: 14%
  ligand binding stoichiometry, CYP121 Dimer: 2
  ligand binding stoichiometry, CYP121 Monomer: 1
CYP144TR
  Binding Mode, CYP144TR: N
CYP1A
  app SR (IC50/KD): >4
